Measurements reported in patent US20220338504A1 (priority 2017, published 2022).
Like-named read-outs stand apart in the source and are kept apart here. Marks after values point to notes of the source that are not given here.

Key:
[1] = system: C. perfringens; type: in vivo, broilers (male Ross×Ross chicks); settings: Virginiamycin 20 g/ton, formulated yeast 0.5 lb/ton, ground pepper 0.3 lb/ton, combination 0.3 + 0.5 lb/ton
[2] = system: C. perfringens; type: in vivo, broilers (male Ross×Ross chicks); settings: 20 g/ton
[3] = system: E. maxima and C. perfringens; type: in vivo, broilers (male Cobb×Cobb chicks); settings: challenged, BMD 50.0 g/ton, encapsulated ground pepper 300 g/ton
[4] = system: E. maxima and C. perfringens; type: in vivo, broilers (male Cobb×Cobb chicks)
[5] = system: E. maxima and C. perfringens; type: in vivo, broilers (male Cobb×Cobb chicks); remark: listed apart in the source
[6] = system: E. maxima and C. perfringens; type: in vivo, broilers (male Cobb×Cobb chicks); remark: listed apart in the source
[7] = system: E. maxima and C. perfringens; type: in vivo, broilers (male Cobb×Cobb chicks); remark: listed apart in the source
[8] = system: Clostridium perfringens strain #6 (with coccidia / E. maxima); type: in vivo, broilers (male Ross×Ross chicks)
[9] = 0-21 d, challenged, BMD 50.0 g/ton, combination 0.30 lb/ton + 0.5 lb/ton + 3 × 10^5 cfu/g
[10] = 0-28 d, challenged, BMD 50.0 g/ton, combination 0.30 lb/ton + 0.5 lb/ton + 3 × 10^5 cfu/g
[11] = 14-21 d, challenged, BMD 50.0 g/ton, combination 0.30 lb/ton + 0.5 lb/ton + 3 × 10^5 cfu/g
[12] = 14-28 d, challenged, BMD 50.0 g/ton, combination 0.30 lb/ton + 0.5 lb/ton + 3 × 10^5 cfu/g
[13] = 0-21 d, challenged, BMD 50.0 g/ton, combination 4.0 lb/ton + 3 × 10^5 cfu/g
[14] = 0-28 d, challenged, BMD 50.0 g/ton, combination 4.0 lb/ton + 3 × 10^5 cfu/g
[15] = 14-21 d, challenged, BMD 50.0 g/ton, combination 4.0 lb/ton + 3 × 10^5 cfu/g
[16] = 14-28 d, challenged, BMD 50.0 g/ton, combination 4.0 lb/ton + 3 × 10^5 cfu/g
[17] = 0-21 d, challenged, BMD 50.0 g/ton, combination 0.3 lb/ton + 3 × 10^5 cfu/g
[18] = 0-28 d, challenged, BMD 50.0 g/ton, combination 0.3 lb/ton + 3 × 10^5 cfu/g
[19] = 14-21 d, challenged, BMD 50.0 g/ton, combination 0.3 lb/ton + 3 × 10^5 cfu/g
[20] = 14-28 d, challenged, BMD 50.0 g/ton, combination 0.3 lb/ton + 3 × 10^5 cfu/g
[21] = 0-21 d, challenged, BMD 50.0 g/ton, combination 0.5 lb/ton + 3 × 10^5 cfu/g
[22] = 0-28 d, challenged, BMD 50.0 g/ton, combination 0.5 lb/ton + 3 × 10^5 cfu/g
[23] = 14-21 d, challenged, BMD 50.0 g/ton, combination 0.5 lb/ton + 3 × 10^5 cfu/g
[24] = 14-28 d, challenged, BMD 50.0 g/ton, combination 0.5 lb/ton + 3 × 10^5 cfu/g

Q: What does the source list for Virginiamycin?
A: Body weight gain ([1]; 15 d): 0.38 kg; Feed Conversion ([1]; 15 d): 1.32^xy; Feed consumption ([1]; 15 d): 0.44^ab Kg; Body weight gain ([1]; 35 d): 1.57^xy Kg; Feed Conversion ([1]; 35 d): 1.73; Feed consumption ([1]; 35 d): 2.62 kg; Body weight gain ([1]; 42 d): 2.17 kg; Feed Conversion ([1]; 42 d): 1.76; Feed consumption ([1]; 42 d): 3.70 kg; Necrotic enteritis related mortality, % [1]: 3.50%; Total Mortality % [1]: 0.50%; Total Mortality % [2]: 5.36%; Body weight gain ([2]; 15 d): 0.33 kg; Feed Conversion ([2]; 15 d): 1.33^b; Feed consumption ([2]; 15 d): 0.39 kg; Body weight gain ([2]; 35 d): 1.10^ab Kg; Feed Conversion ([2]; 35 d): 1.62^abc; Feed consumption ([2]; 35 d): 1.73^x Kg; Body weight gain ([2]; 42 d): 2.27 kg; Feed Conversion ([2]; 42 d): 1.74^abc; Feed consumption ([2]; 42 d): 3.90^xy Kg

Q: Which results are given for bacitracin methylene disalycilate [BMD]?
A: Body weight gain ([3]; 0-21 d): 0.44 kg; Feed Conversion ([3]; 0-21 d): 1.79^ab; Feed consumption ([3]; 0-21 d): 0.79 kg; Body weight gain ([3]; 0-28 d): 0.65 kg; Feed Conversion ([3]; 0-28 d): 1.88^b; Feed consumption ([3]; 0-28 d): 1.22 kg; Body weight gain ([3]; 14-21 d): 0.16^b Kg; Feed Conversion ([3]; 14-21 d): 2.56^b; Feed consumption ([3]; 14-21 d): 0.41 kg; Body weight gain ([3]; 14-28 d): 0.37^ab Kg; Feed Conversion ([3]; 14-28 d): 2.58^b; Feed consumption ([3]; 14-28 d): 0.95 kg; Necrotic enteritis lesion score ([3]; DOT 21, 0 to 3 score, 0 normal, 3 most severe): 1.1^b; Necrotic enteritis related mortality, % [3]: 28.1^b %; Body weight gain [4, 9]: 0.52^ab Kg; Feed Conversion [4, 9]: 1.81^a; Feed consumption [4, 9]: 0.94 kg; Body weight gain [4, 10]: 0.77 kg; Feed Conversion [4, 10]: 1.78^b; Feed consumption [4, 10]: 1.37 kg; Body weight gain [4, 11]: 0.28^b Kg; Feed Conversion [4, 11]: 1.77^b; Feed consumption [4, 11]: 0.49 kg; Body weight gain [4, 12]: 0.53 kg; Feed Conversion [4, 12]: 1.73^bc; Feed consumption [4, 12]: 0.91 kg; Necrotic enteritis lesion score ([4]; DOT 21, 0 to 3 score, challenged, BMD 50.0 g/ton, combination 0.30 lb/ton + 0.5 lb/ton + 3 × 10^5 cfu/g): 0.5^b; Necrotic enteritis lesion scores compared to the challenged control birds ([4]; P<0.05): lower; Overall FCR compared to the challenged no feed additive control ([4]; P<0.05): reduced; necrotic enteritis related mortality compared to the challenged control birds ([4]; P<0.05): lower; Necrotic enteritis related mortality, % ([4]; challenged, BMD 50.0 g/ton, combination 0.30 lb/ton + 0.5 lb/ton + 3 × 10^5 cfu/g): 2^b %; FCR compared to the challenge control birds ([4]; d 14-28, P<0.05): decreased; Body weight gain compared to the challenged no feed additive control group ([4]; in vivo): not impacted; controlling C. perfringens disease challenge ([4]; in vivo): effective; Body weight gain [5, 13]: 0.57^a Kg; Feed Conversion [5, 13]: 1.53^c; Feed consumption [5, 13]: 0.87 kg; Body weight gain [5, 14]: 0.81^a Kg; Feed Conversion [5, 14]: 1.60^b; Feed consumption [5, 14]: 1.30 kg; Body weight gain [5, 15]: 0.32^ab Kg; Feed Conversion [5, 15]: 1.72^b; Feed consumption [5, 15]: 0.55 kg; Body weight gain [5, 16]: 0.56^a Kg; Feed Conversion [5, 16]: 1.75^b; Feed consumption [5, 16]: 0.98^a Kg; Necrotic enteritis lesion score ([5]; DOT 21, 0 to 3 score, challenged, BMD 50.0 g/ton, combination 4.0 lb/ton + 3 × 10^5 cfu/g): 0.79^b; Necrotic enteritis lesion score compared to the challenged control birds ([5]; P<0.05): lower; Necrotic enteritis related mortality, % ([5]; challenged, BMD 50.0 g/ton, combination 4.0 lb/ton + 3 × 10^5 cfu/g): 0.0^b %; overall FCR compared to the challenged control birds ([5]; d 0-28): reduced; overall body weight gain compared to the challenged control birds ([5]; d 0-28): increased; FCR compared to the challenge control birds ([5]; d 14-28, P<0.05): decreased; body weight gain compared to the challenge control birds ([5]; d 14-28, P<0.05): increased; controlling C. perfringens disease challenge ([5]; in vivo): effective; necrotic enteritis mortality compared to the challenged control group ([5]; in vivo): lower; Body weight gain [6, 17]: 0.66^a Kg; Feed Conversion [6, 17]: 1.62^ab; Feed consumption [6, 17]: 1.07 kg; Body weight gain [6, 18]: 0.92^ab Kg; Feed Conversion [6, 18]: 1.67^a; Feed consumption [6, 18]: 1.54 kg; Body weight gain [6, 19]: 0.30^b Kg; Feed Conversion [6, 19]: 1.95^b; Feed consumption [6, 19]: 0.58 kg; Body weight gain [6, 20]: 0.56^ab Kg; Feed Conversion [6, 20]: 1.93^b; Feed consumption [6, 20]: 1.08 kg; Necrotic enteritis lesion score ([6]; DOT 21, 0 to 3 score, challenged, BMD 50.0 g/ton, combination 0.3 lb/ton + 3 × 10^5 cfu/g): 0.50^b; Necrotic enteritis lesion score compared to the challenged control birds ([6]; P<0.05): lower; Necrotic enteritis related mortality, % ([6]; challenged, BMD 50.0 g/ton, combination 0.3 lb/ton + 3 × 10^5 cfu/g): 0.0%; overall body weight gain compared to the challenged control ([6]; d 0-28): increased; FCR compared to the challenge control birds ([6]; d 14-28, P<0.05): decreased; body weight gain compared to the challenge control birds ([6]; d 14-28, P<0.05): increased; controlling C. perfringens disease challenge ([6]; in vivo): effective; Body weight gain [7, 21]: 0.34^a Kg; Feed Conversion [7, 21]: 2.21^b; Feed consumption [7, 21]: 0.75 kg; Body weight gain [7, 22]: 0.57 kg; Feed Conversion [7, 22]: 2.08^b; Feed consumption [7, 22]: 1.19 kg; Body weight gain [7, 23]: 0.15^bc Kg; Feed Conversion [7, 23]: 2.30^b; Feed consumption [7, 23]: 0.34 kg; Body weight gain [7, 24]: 0.38^ab Kg; Feed Conversion [7, 24]: 2.05^b; Feed consumption [7, 24]: 0.78 kg; Necrotic enteritis lesion score ([7]; DOT 21, 0 to 3 score, challenged, BMD 50.0 g/ton, combination 0.5 lb/ton + 3 × 10^5 cfu/g): 0.3^c; Necrotic enteritis lesion score compared to the challenged control birds ([7]; P<0.05): lower; necrotic enteritis mortality compared to the challenged control group ([7]; P<0.05): decreased; Necrotic enteritis related mortality, % ([7]; challenged, BMD 50.0 g/ton, combination 0.5 lb/ton + 3 × 10^5 cfu/g): 3^b %; overall FCR compared to the challenged control birds ([7]; d 0-28, P<0.05): decreased; body weight gain compared to the challenge control birds ([7]; d 14-28): similar; FCR compared to the challenge control birds ([7]; d 14-28, P<0.05): decreased; controlling C. perfringens disease challenge ([7]; in vivo): effective; FCR compared to birds fed with no feed additive ([8]; 28 days of age, P<0.05): decreased; body weight gain compared to birds fed with no feed additive ([8]; 28 days of age, P<0.05): increased; Body weight gain compared to the control fed birds ([8]; 41 days of age, P<0.05): increased; FCR compared to the no feed additive control group ([8]; 41 days of age, P<0.05): decreased; Necrotic enteritis lesion score compared to the no feed additive control fed birds ([8]; in vivo): numerically reduced; controlling C. perfringens disease challenge ([8]; in vivo): effective; necrotic enteritis related mortality compared to the no feed additive control fed birds ([8]; in vivo): numerically reduced
